From PubChem BioAssay AID463074 (Broad Institute, 2010)
Calls of active or inactive are those of the source.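 Rule for the calls: active = AC50 no more than tenfold above the top dose tested, or full inhibition at every dose with a flat fit (cut at about 19 µM in these data); inconclusive = flat curve fit with inhibition between 30% and 70%, or poor fit; inactive = AC50 more than tenfold above the top dose tested.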

Tested on: HMLE_sh_eGFP viability, CellTiter-Glo luminescence, 72 h
Assay: cytotoxicity in HMLE control line with eGFP shRNA, dose response, counter-screen for HMLE_sh_ECad selective toxicity project, cell-based, HMLE_sh_eGFP, luminescence (AID 463074);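 note: counterscreen control line to flag general toxicity for the HMLE_sh_ECad screen; potency for loss of viability as luminescence drops below DMSO wells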

Compound | AC50
CC(=O)Nc1ccc(N=Cc2c(O)c(C(=O)Nc3ccccc3)cc3ccccc23)cc1 | 4.21 µM
Cc1nc(Nc2nc(CSc3nc4ccccc4[nH]3)cc(=O)[nH]2)nc2ccccc12 | 2.69 µM
CCOc1cc(/C=C2/SC(=S)N(Cc3ccccc3)C2=O)ccc1O | 3.76 µM
Cc1cccc(-n2c(/C=C/c3ccc([N+](=O)[O-])o3)nc3ccccc3c2=O)c1 | 1.99 µM
Cc1ccc(Cl)cc1NC(=O)c1ccccc1OCC(=O)Nc1ccc(Cl)cc1 | 11.5 µM
CC1(C)C=Cc2c(c3c(c4c(=O)c(-c5ccc(O)cc5)coc24)OC(C)(C)CC3)O1 | 7.5 µM
CCc1ccc2[nH]c3nc(N/N=C/c4cccc(O)c4)nnc3c2c1 | < 0.16 µM
Clc1cccc(Nc2nc(-c3ccncc3)cs2)c1 | 5.03 µM
O=C(Nc1ccc2c(c1)OCO2)c1cc(-c2ccc(O)cc2)on1 | 1.33 µM
COc1ccc2nc(C)cc(SCC(=O)N/N=C/c3cccc4ccccc34)c2c1 | 1.86 µM
COC(=O)c1cc(=O)n(Cc2cccs2)c(=Nc2ccccc2)s1 | 4.57 µM
CCOC(=O)C(C(=O)OCC)C(Nc1ccc(Br)cc1)c1ccccc1 (stereo not drawn) | 19.8 µM
Cc1ccc(OCCCCN(C)Cc2ccccc2)c(Br)c1 | 12.5 µM
C=C(C)Cn1c(SCC(=O)N/N=C/c2c(O)ccc3ccccc23)nc2ccccc2c1=O | 5.62 µM
Cc1cccc(-c2nc(Nc3cccc(O)c3)c3ccccc3n2)c1 | 5.27 µM
COc1cc(NC2CCCCC2O)c2nc(-c3ccc(Cl)cc3)ccc2c1 (stereo not drawn) | 5.65 µM
OCCN1CCN(CCCN2c3ccccc3Sc3ccc(C(F)(F)F)cc32)CC1 | 4.67 µM
N#Cc1ccc(Nc2nc(-c3ccc(O)cc3O)cs2)cc1C(F)(F)F | 3.87 µM
COc1cccc(/C=N/NC(=O)c2[nH]c(C)c(C(=O)N/N=C/c3cccc(OC)c3O)c2C)c1O | 4.53 µM
O=C(/C=C/c1ccccc1)NC(=S)NNC(=O)c1cnccn1 | 6.84 µM
CC(=O)O[C@H]1[C@H]2O[C@]23[C@@H]2CC[C@]4(O)C[C@@H](O)CC[C@]4(C)C2CC[C@]3(C)[C@H]1c1ccc(=O)oc1 (stereo partly drawn) | < 0.16 µM
O=C(N/N=C/c1ccc(O)cc1O)/C(=C/c1ccccc1)CCO | 7.22 µM

Compound | AC50
O=C(NNC(=O)c1cc(-c2ccc(Cl)c(Cl)c2)nc2ccccc12)Nc1ccccc1 | 6.4 µM
CC(Cc1ccccc1)NCCC(c1ccccc1)c1ccccc1 (stereo not drawn) | 8.73 µM
O=C(NC(NC(=S)Nc1cccc(Cl)c1)C(Cl)(Cl)Cl)OCc1ccccc1 (stereo not drawn) | 3.93 µM
CC(C)c1cccc(C(C)C)c1OC(=O)[C@H]1OC(c2ccc(Br)cc2)=C[C@@H]1c1ccc(Br)cc1 | 4.64 µM
CCS(=O)(=O)Nc1ccc(-c2cc(-c3ccccc3)c3cc(C)ccc3n2)cc1 | 3.85 µM
C=C[C@@H]1c2cccc(C)c2N(S(=O)(=O)c2ccc(C)cc2)[C@H](c2ccc(OC(C)=O)cc2)C1(C#N)C#N | 6.71 µM
C/C(N=Nc1nc2ccccc2s1)=N\Nc1ccccc1O | 6.1 µM
Cc1nn(-c2ccccc2)c(C)c1/C=N/n1c(-c2ccc(C(C)(C)C)cc2)n[nH]c1=S | 6.74 µM
N#Cc1c(-c2ccccc2)nc(SCc2cccc(Cl)c2)[nH]c1=O | 7.69 µM
CCOC(=O)N1CCN(c2ccc(C(=O)c3cccc(F)c3)cc2)CC1 | > 19.5 µM (inactive)
O=C1c2ccccc2NC(c2ccc(-c3cccc(Cl)c3)o2)N1O (stereo not drawn) | 4.85 µM
OCCCNc1nc(-c2ccccc2)c2cc(Br)ccc2n1 | > 19.5 µM (inactive)
CCCCCc1nc2c(c(=O)c3ccccc3n2C)c(=O)n1C1CCCCCC1 | 2.97 µM
Fc1cccc(-c2cc3nc4c(c(NCc5ccco5)n3n2)CCCC4)c1 | 7.77 µM
COc1ccc(/C=C/C(=O)c2ccc(O)cc2)cc1COc1ccc(F)cc1 | 4.37 µM
O=C(Nc1ccc(Cl)c(Cl)c1)Nc1ccccc1NS(=O)(=O)c1cccs1 | 13.6 µM
Cc1ccc(S(=O)(=O)N2CCCCC2)cc1NC(=O)Cn1ncc(Cl)c(Cl)c1=O | 2.44 µM
C/C(=N\NC(=O)c1nnn(-c2nonc2N)c1CN1CCc2ccccc21)c1ccccc1O | 3.21 µM
COc1cc(/C=C(\C#N)C(=O)NC2CCCCC2C)ccc1OS(=O)(=O)c1ccc(C)cc1 (stereo not drawn) | 6.69 µM
CCOC(=O)c1c(NC(=O)/C=C/c2ccc3c(c2)OCO3)sc(C)c1CC | 1.35 µM
CCN(CC)S(=O)(=O)c1cccc(NC(=O)Nc2cccc(C(F)(F)F)c2)c1 | 3.56 µM
CC(=O)n1c2c(c3ccccc31)OC(N)=C(C#N)C2c1cccc(Cl)c1Cl (stereo not drawn) | 4.88 µM

Compound | AC50
COc1ccc(-c2cc([C@H]3[C@@H]4C=CCC[C@@]4(C)C(=O)N3Cc3ccccc3)ccc2F)cc1 | 6.8 µM
O=S(=O)(Nc1ccc(-n2cccc2)cc1)c1ccc(Cl)c(Cl)c1 | 5.21 µM
CCc1ccc(NC(=O)c2cc3c(C)nc4ccccc4c3o2)cc1 | 11.9 µM
CCOC(=O)C(=O)NNc1ccc(Cl)cc1 | 1.37 µM
CC1(C)CCC[C@]2(C)[C@H]3Cc4cc(O)ccc4O[C@]3(C)CC[C@@H]12 | 6.89 µM
O=C(Nc1cccc(-c2csc(-c3ccccc3)n2)c1)c1cccs1 | 5.22 µM
COc1ccc(/C=C/C(=O)c2ccc([N+](=O)[O-])o2)cc1OC | 2.47 µM
CCCCCCCCOC(=O)C1=C(C)Nc2nnnn2C1c1cccs1 (stereo not drawn) | 6.86 µM
CCOC(=O)c1c(-c2ccccc2)csc1NC(=O)c1nn(CC)cc1Br | 0.478 µM
CC(C)(C)c1ccc(Cn2nnc3c(=O)[nH]c(C4CCCN(C(=O)c5cccs5)C4)nc32)cc1 (stereo not drawn) | 14.6 µM
Cc1cc(C)cc(NC(=O)Nc2ccc(NC(=O)c3ccccc3O)cc2)c1 | > 19.5 µM (inactive)
CCCSc1nnc(CSc2nc3ccccc3s2)n1-c1ccccc1 | 3.01 µM
O=C(Nc1ccc(-c2csc(Nc3cccc(C(F)(F)F)c3)n2)cc1)c1ccccc1 | 1.96 µM
CS(=O)(=O)c1ccc(C(=O)OCC(=O)NC23CC4CC(CC(C4)C2)C3)cc1[N+](=O)[O-] | 2.39 µM
Cc1c(C)n(CCc2ccccc2)c2ncnc(NCCCN(C)C)c12 | 5.52 µM
Cc1ccc(NC2=NCC(Cc3ccc(Br)cc3)S2)cc1 (stereo not drawn) | 6.73 µM
Cc1sc(NC(=O)C2CCCCC2)c(C#N)c1-c1ccccc1 | > 19.5 µM (inactive)
COC(=O)[C@@H]1C[C@]2(OC(=O)c3ccccc3)C=CC(=O)C[C@@H]2N1C(=O)OCc1ccccc1 | 7.87 µM
Cc1ccc(S(=O)(=O)Nc2ccc(NC(=O)Nc3cccc(C(F)(F)F)c3)cc2)cc1 | 2.51 µM
CNC(=O)NC(=O)C(C)OC(=O)c1c2c(nc3ccccc13)/C(=C/c1cccs1)CC2 (stereo not drawn) | 4.01 µM
CC1(C)Cc2c(C#N)c(NC3CCCCC3)nc(-c3ccco3)c2CO1 | 7.19 µM
CCc1ccc2oc(C(=O)NCC(c3ccc(OC)cc3)N3CCCCC3)c(C)c2c1 (stereo not drawn) | 6.09 µM

Compound | AC50
O=C(/C=C/c1ccc(F)cc1)c1ccccc1Br | 3.57 µM
CCOc1ccc(C(=O)CCC(=O)N2CCN(c3ccc(O)cc3)CC2)cc1 | 2.49 µM
COc1ccc(/C=C/c2nc3cc(-c4ccccc4)ccc3o2)cc1O | 9.18 µM
O=C(Nc1ccc(Nc2ccccc2)cc1)c1ccccc1 | 13.5 µM
O=C(NNC1=C(C(=O)C(F)(F)F)CCC1)c1cccc(Cl)c1 | 3.64 µM
Clc1ccc2nnnc(-c3ccccc3)c2c1 | 4.26 µM
Cc1cc(C2(c3ccc(O)c(C)c3)C(=O)Nc3ccccc32)ccc1O | 7.1 µM
Oc1ccc(Br)cc1/C=N/NC(=S)NCCc1ccccc1 | 4.19 µM
CCOC(=O)/C(=C\c1ccc([N+](=O)[O-])cc1)C(=O)c1cc(C(C)=O)c(Nc2ccccc2)s1 | 1.07 µM
O=c1c2ccccc2nc2n1CCc1c-2[nH]c2ccccc12 | > 19.5 µM (inactive)
COc1cccc(-c2sc3ccc(OC)cc3c2C#CCC(C)O)c1 (stereo not drawn) | 5.4 µM
Cc1cccc(C)c1N=Nc1c(C)cc(O)cc1C | 7.2 µM
COC(=O)c1c(NC(=O)Cc2cccs2)sc2c1CCC(C)C2 (stereo not drawn) | 9.75 µM
C=C(C)COc1ccc(-c2[nH]ncc2Oc2ccc(OC)cc2)c(O)c1 | 5.99 µM
Cc1ccc(-n2c(-c3cccs3)nc3ccccc3c2=O)cc1 | 3.36 µM
Cc1cccc(OCCNC(=O)c2cccc(Oc3ccc(C(F)(F)F)cc3[N+](=O)[O-])c2)c1 | 6.38 µM
Cc1cccc2[nH]c3c(N4CC=C(c5ccc(F)cc5)CC4)ncnc3c12 | 5.01 µM
Cc1[nH]n(-c2ccc([N+](=O)[O-])cc2)c(=O)c1C=NCCN1CCN(C(=O)C(C)C)CC1 | 5.14 µM
O=[N+]([O-])/C=C/c1cn(Cc2ccc(F)cc2)c2ccccc12 | 6.86 µM
CC(=O)Oc1ccc(C(=O)Nc2ccc(C3(C#N)CCCC3)cc2)cc1 | 8.24 µM
O=C(NCc1nc(-c2ccc(C(F)(F)F)cc2)no1)Nc1cc(Cl)cc(Cl)c1 | 2.46 µM
Clc1cccc(CN2CCc3c([nH]c4ccccc34)C2)c1Cl | 6.15 µM

Compound | AC50
O=C/C=C/c1c(-c2ccccc2)cc2oc3ccccc3cc1-2 | 9.18 µM
CC(C)=CCc1c(O)cc2c(=O)c3ccc(O)cc3oc2c1O | 6.87 µM
O=C(/C=C/c1ccc2c(c1)OCO2)NCCSCc1ccc(Cl)cc1 | 0.957 µM
O=C1c2cccc3cccc(c23)C(=O)N1CCN1CCN(CC(O)COc2ccc3ccccc3c2)CC1 (stereo not drawn) | 6.81 µM
Cc1cc(SCC(=O)N/N=C/c2ccc(O)cc2O)nc2ccccc12 | 4.75 µM
CCCCN(CC)S(=O)(=O)c1ccc(C(=O)N(CCCN(C)C)c2nc3cc(C)cc(C)c3s2)cc1 | 7.21 µM
O=C1c2c(Br)c(Br)c(Br)c(Br)c2C(=O)N1c1ccccn1 | 3.65 µM
O=[N+]([O-])c1ccc(O)c(-c2nc(-c3ccccc3)c(-c3cccs3)[nH]2)c1 | 1.69 µM
CCOc1cc(CNc2ccc(Br)cc2)cc(Br)c1OCC(=O)NC(C)(C)C | 6.32 µM
CCC(=O)Nc1ccc(C(=O)Cn2ncc(Cl)c(Cl)c2=O)cc1 | 7.77 µM
S=C(Nc1ccc(Oc2ccccc2)cc1)NC1CCCCCC1 | 4.84 µM
O=C(CCC1CCCC1)Nc1ccc(C(=O)NCc2cccnc2)cc1 | 1.04 µM
S=C(Nc1ccccc1Cl)N1CCCC(c2ccccc2)=N1 | 8.88 µM
CCOC(=O)c1ccc(-n2[nH]c(-c3ccccc3)cc2=O)cc1 | 7.96 µM
COc1ccc2sc(-c3ccc(SC)cc3)c(C#CCO)c2c1 | 8.45 µM
O=C(Nc1ccc(Nc2ccccc2)cc1)Nc1ccccc1Cl | 3.44 µM
CCN(CC)CCNC(=O)c1[nH]c2ccc(OCc3ccccc3)cc2c1C | 1.81 µM
N#CC(C#N)=C(C#N)c1ccc(Nc2ccccc2)cc1 | 3.14 µM
CC1CCCCC1NC(=O)/C(C#N)=C/c1ccccc1F (stereo not drawn) | 7.72 µM
COc1cc(C#Cc2c(-c3cncn3C)n(C)c3ccc(-c4ccc(OC)nc4)cc23)cc(OC)c1 | 6.61 µM
